PMC12747546, “Homoharringtonine suppresses acute myeloid leukemia progression by orchestrating EWSR1 phase separation in an m^6A‐YTHDF2‐dependent mechanism” (iMeta, 2025)
Residue numbers refer to the chain shown, from its start.

How the values were obtained:
Assay in all cases: microscale thermophoresis
Settings in all cases: EWSR1-C mutant; read-out: binding constants
EWSR1-C (GFP-EWSR1-C) [1] = biological target: T1, EWSR1-C (GFP-EWSR1-C) (Homo sapiens, UniProt Q01844, T393A)
T1 construct: C-terminal region 301-656 (contains RNA recognition motif 353-453), GFP fusion, overexpressed in HEK293T, lysate
T1 sequence (Q01844 301-656 T393A): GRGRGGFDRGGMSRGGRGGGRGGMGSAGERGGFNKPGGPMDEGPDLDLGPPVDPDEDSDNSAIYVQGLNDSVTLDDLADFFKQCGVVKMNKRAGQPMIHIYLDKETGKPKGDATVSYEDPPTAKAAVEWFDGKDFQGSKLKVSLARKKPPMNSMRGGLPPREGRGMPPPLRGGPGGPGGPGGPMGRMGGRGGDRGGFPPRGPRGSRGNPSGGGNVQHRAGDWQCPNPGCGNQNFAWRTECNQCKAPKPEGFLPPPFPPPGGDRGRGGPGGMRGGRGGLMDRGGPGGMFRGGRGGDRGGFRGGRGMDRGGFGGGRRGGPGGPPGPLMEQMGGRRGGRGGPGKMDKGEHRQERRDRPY
Experimental: (§1) microscale thermophoresis on EWSR1-C (GFP-EWSR1-C) | The binding affinity of HHT to these EWSR1 mutants was assessed through MST

EWSR1-C (GFP-EWSR1-C) [2] = biological target: T2, EWSR1-C (GFP-EWSR1-C) (Homo sapiens, UniProt Q01844, P396A)
T2 construct: C-terminal region 301-656 (contains RNA recognition motif 353-453), GFP fusion, overexpressed in HEK293T, lysate
T2 sequence (Q01844 301-656 P396A): T1 sequence (Q01844 301-656 T393A) with A93T, P96A
Experimental: as §1

EWSR1-C (GFP-EWSR1-C) [3] = biological target: T3, EWSR1-C (GFP-EWSR1-C) (Homo sapiens, UniProt Q01844, M397A)
T3 construct: C-terminal region 301-656 (contains RNA recognition motif 353-453), GFP fusion, overexpressed in HEK293T, lysate
T3 sequence (Q01844 301-656 M397A): T1 sequence (Q01844 301-656 T393A) with A93T, M97A
Experimental: as §1

EWSR1-C (GFP-EWSR1-C) [4] = biological target: T4, EWSR1-C (GFP-EWSR1-C) (Homo sapiens, UniProt Q01844, I400A)
T4 construct: C-terminal region 301-656 (contains RNA recognition motif 353-453), GFP fusion, overexpressed in HEK293T, lysate
T4 sequence (Q01844 301-656 I400A): T1 sequence (Q01844 301-656 T393A) with A93T, I100A
Experimental: as §1

COC(=O)C[C@](O)(CCCC(C)(C)O)C(=O)O[C@@H]1C(OC)=C[C@]23CCCN2CCc2cc4c(cc2[C@H]13)OCO4 [Homoharringtonine]
Kd (EWSR1-C (GFP-EWSR1-C) [1]): 81 µM | Kd (EWSR1-C (GFP-EWSR1-C) [2]): 94.6 µM | Kd (EWSR1-C (GFP-EWSR1-C) [3]): 9.75 µM | Kd (EWSR1-C (GFP-EWSR1-C) [4]): 35.7 µM
